Data on 17 compounds can be found in patent publication US10821115B2, “Compounds that inhibit Mcl-1 protein” (priority 2017, dated 2020).

Structures are written as SMILES. Read-outs that look alike come from different tables or passages of the source.

Test [1] addresses recombinant human Mcl-1 (residues 171-327) / Bim interaction (Homo sapiens (Human), UniProt Q07820). Nature of the test: biochemical. It is filed as binding. The following applies: read-out: Mcl-1 HTRF IC50.
For test [2], the system named is human multiple myeloma cell line, OPM-2. Nature of the test: Cell viability assay (OPM-2 10 FBS), CellTiter-Glo. The test is classed as cell-based. Put shortly: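 Serially diluted test compounds are incubated 16 h with cells (3000/well) in RPMI 1640 supplemented with 10% FBS. Viability is then measured by luminescence and IC50 calculated by 4-parameter logistic fit.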
On the technique in general: In ATP-based viability assays light output follows the ATP content of the culture.

The mark [3] stands for this setting: TR-FRET, Mcl-1(171-327) / biotin-Bim (51-76).
Where [4] appears, read: 0.1 nM Mcl-1(171-327), 0.05 nM biotin-Bim (51-76).
Setting [5] is: Homo sapiens, OPM-2, 16 h, read-out: OPM-2 10% FBS IC50 IP, OPM-2 cells, 10% FBS, 16 h incubation.
[6] abbreviates: Homo sapiens, OPM-2, 16 h, read-out: OPM-2 10% FBS IC50 IP, OPM-2 cells, 10% FBS, 16 h, CellTiter-Glo.
The mark [7] stands for this setting: read-out: OPM-2 10% FBS IC50 IP, OPM-2 cells, 10% FBS, 16 h, CellTiter-Glo.

recombinant human Mcl-1 (residues 171-327) / Bim interaction, sequence (Q07820 171-327): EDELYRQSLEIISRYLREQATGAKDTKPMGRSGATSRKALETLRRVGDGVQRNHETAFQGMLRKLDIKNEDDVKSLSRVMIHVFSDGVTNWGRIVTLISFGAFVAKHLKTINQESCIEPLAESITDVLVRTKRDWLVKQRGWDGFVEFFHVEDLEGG

In general, IC50 refers to the concentration needed to halve the response being measured. Consider `CC#C[C@@]1(O)CCCCCS(=O)(=O)NC(=O)c2ccc3c(c2)N(C[C@@H]2CC[C@H]21)C[C@@]1(CCCc2cc(Cl)ccc21)CO3` [Example 100026, (1S,3′R,6′R,7′R)-6-chloro-7′-hydroxy-7′-(1-propyn-1-yl)-3,4-dihydro-2H,15′H-spiro[naphthalene-1,22′-[20]oxa[13]thia[1,14]diazatetracyclo [14.7.2.0~3,6~.0~19,24~]pentacosa[16,18,24]trien]-15′-one 13′,13′-dioxide], for which the IC50 in test [1] (setting [3]) stood at 2.15 nM.
Consider `C[C@@H]1[C@@H](C)C/C=C/[C@@]2(CN3CCOC[C@H]3CO2)[C@@H]2CC[C@H]2CN2C[C@@]3(CCCc4cc(Cl)ccc43)COc3ccc(cc32)C(=O)NS1(=O)=O` [Example 99, (1S,3′R,6′R,7′S,8′E,9a″S,11′S,12′R)-6-chloro-11′,12′-dimethyl-3,4,6″,7″,9″,9a″-hexahydro-1″H,2H,15′H-dispiro[naphthalene-1,22′-[20]oxa[13]thia[1,14]diazatetracyclo[14.7.2.0˜3,6˜.0˜19,24˜]pentacosa[8,16,18,24]tetraene-7′,3″-[1,4]oxazino[3,4-c][1,4]oxazin]-15′-one 13′,13′-dioxide], for which the IC50 in test [1] (setting [4]) came out at 0.243 nM.
Take `CC#C[C@]1(O)CCCCCS(=O)(=O)NC(=O)c2ccc3c(c2)N(C[C@@H]2CC[C@H]21)C[C@@]1(CCCc2cc(Cl)ccc21)CO3` [Example 100025, (1S,3′R,6′R,7′S)-6-chloro-7′-hydroxy-7′-(1-propyn-1-yl)-3,4-dihydro-2H,15′H-spiro[naphthalene-1,22′-[20]oxa[13]thia[1,14]diazatetracyclo [14.7.2.0~3,6~.0~19,24~]pentacosa[16,18,24]trien]-15′-one 13′,13′-dioxide]: the 50% inhibitory concentration (IC50) in test [1] (setting [3]) came to 2.35 nM.
Take `C[C@H]1CC/C=C/[C@](C)(O)[C@@H]2CC[C@H]2CN2C[C@@]3(CCCc4cc(Cl)ccc43)COc3ccc(cc32)C(=O)NS1(=O)=O` (single isomer, unassigned) [Example 100029]: the IC50 in test [1] (setting [3]) amounted to 8.73 nM.
Turning to `CO[C@]1(CO)/C=C/C[C@H](C)[C@@H](C)S(=O)(=O)NC(=O)c2ccc3c(c2)N(C[C@@H]2CC[C@H]21)C[C@@]1(CCCc2cc(Cl)ccc21)CO3` [Example 100312, (1S,3′R,6′R,7′R,8′E,11′S,12′R)-6-chloro-7′-(hydroxymethyl)-7′-methoxy-11′,12′-dimethyl-3,4-dihydro-2H,15′H-spiro[naphthalene-1,22′-[20]oxa[13]thia[1,14]diazatetracyclo [14.7.2.0~3,6~.0~19,24~]pentacosa[8,16,18,24]tetraen]-15′-one 13′,13′-dioxide], the IC50 in test [1] (setting [3]) is 0.088 nM.
As to `CCO[C@@]1(CN2CCN3CCOC[C@@H]3C2)/C=C/C[C@H](C)[C@@H](C)S(=O)(=O)NC(=O)c2ccc3c(c2)N(C[C@@H]2CC[C@H]21)C[C@@]1(CCCc2ccccc21)CO3` [Example 105, (1S,3′R,6′R,7′S,8′E,11′S,12′R)-7′-ethoxy-7′-((9aS)-hexahydropyrazino[2,1-c][1,4]oxazin-8(1H)-ylmethyl)-11′,12′-dimethyl-3,4-dihydro-2H, 15′H-spiro[naphthalene-1,22′-[20]oxa[13]thia[1,14]diazatetracyclo[14.7.2.0-3,6˜.0˜19,24˜]pentacosa[8,16,18,24]tetraen]-15′-one 13′,13′-dioxide], the IC50 in test [1] (setting [4]) turned out to be 0.423 nM.
With `C[C@H]1CCCC[C@](C)(O)[C@@H]2CC[C@H]2CN2C[C@@]3(CCCc4cc(Cl)ccc43)COc3ccc(cc32)C(=O)NS1(=O)=O` [Example 100031, (1S,3′R,6′R,7′S,12′S)-6-chloro-7′-hydroxy-7′,12′-dimethyl-3,4-dihydro-2H,15′H-spiro[naphthalene-1,22′-[20]oxa[13]thia[1,14]diazatetracyclo [14.7.2.0~3,6~.0~19,24~]pentacosa[16,18,24]trien]-15′-one 13′,13′-dioxide], the IC50 in test [1] came out at 7.45 nM.
On to `C[C@@H]1[C@@H](C)C/C=C/[C@@](O)(CS(=O)(=O)N(C)C)[C@@H]2CC[C@H]2CN2C[C@@]3(CCCc4cc(Cl)ccc43)COc3ccc(cc32)C(=O)NS1(=O)=O` (single isomer, unassigned) [Example 100020], for which the IC50 in test [1] amounted to 0.032 nM.
For `C[C@@H]1[C@@H](C)C/C=C/[C@@](O)(CN2CCOC[C@@H]2Cn2ccnc2)[C@@H]2CC[C@H]2CN2C[C@@]3(CCCc4cc(Cl)ccc43)COc3ccc(cc32)C(=O)NS1(=O)=O` [Example 100, (1 S,3′R,6′R,7′S,8′E,11′S, 12′R)-6-chloro-7′-hydroxy-7′-(((3S)-3-(1H-imidazol-1-ylmethyl)-4-morpholinyl)methyl)-11′,12′-dimethyl-3,4-dihydro-2H, 15′H-spiro[naphthalene-1,22′-[20]oxa[13]thia[1,14]diazatetracyclo[14.7.2.0-3,6˜.0˜19,24˜]pentacosa[8,16,18,24]tetraen]-15′-one 13′,13′-dioxide], the IC50 in test [2] (setting [5]) amounted to 1650 nM.
Same read-out and setting: for `CCO[C@@]1(CN2CCN3CCCC[C@@H]3C2)/C=C/C[C@H](C)[C@@H](CCOC)S(=O)(=O)NC(=O)c2ccc3c(n2)N(C[C@@H]2CC[C@H]21)C[C@@]1(CCCc2cc(Cl)ccc21)CO3` [Example 370, (1S,3′R,6′R,7′S,8′E,11′S,12′R)-6-chloro-7′-ethoxy-12′-(2-methoxyethyl)-11′-methyl-7′-((9aR)-octahydro-2H-pyrido[1,2-a]pyrazin-2-ylmethyl)-3,4-dihydro-2H,15′H-spiro[naphthalene-1,22′-[20]oxa[13]thia[1,14,25]triazatetracyclo [14.7.2.0~3,6~.0~19,24~]pentacosa[8,16,18,24]tetraen]-15′-one 13′,13′-dioxide] the value was 369 nM.
On the same count and under the same terms, for `C[C@@H]1[C@@H](C)C/C=C/[C@@](O)(CNC(C)(C)C)[C@@H]2CC[C@H]2CN2C[C@@]3(CCCc4cc(Cl)ccc43)COc3ccc(cc32)C(=O)NS1(=O)=O` [Example 125, (1S,3′R,6′R,7′S,8′E,11′S,12′R)-7′-((tert-butylamino)methyl)-6-chloro-7′-hydroxy-11′,12′-dimethyl-3,4-dihydro-2H,15′H-spiro[naphthalene-1,22′-[20]oxa[13]thia[1,14]diazatetracyclo[14.7.2.0-3,6˜.0˜19,24˜]pentacosa[8,16,18,24]tetraen]-15′-one 13′,13′-dioxide] the value was 1480 nM.
`COC(=O)[C@H](NC(=O)C[C@]1(OC)/C=C/C[C@H](C)[C@@H](C)S(=O)(=O)NC(=O)c2ccc3c(c2)N(C[C@@H]2CC[C@H]21)C[C@@]1(CCCc2cc(Cl)ccc21)CO3)C(C)=O` [Example 100582]: the IC50 in test [2] (setting [6]) is 1120 nM.
On to `CO[C@@]1(CNCCN2CCOCC2)/C=C/C[C@H](C)[C@@H](C)S(=O)(=O)NC(=O)c2ccc3c(c2)N(C[C@@H]2CC[C@H]21)C[C@@]1(CCCc2cc(Cl)ccc21)CO3` [Example 34, (1 S,3′R,6′R,7′S,8′E,11′S,12′R)-6-chloro-7′-methoxy-11′,12′-dimethyl-7′-(((2-(4-morpholinyl)ethyl)amino)methyl)-3,4-dihydro-2H, 15′H-spiro[naphthalene-1,22′-[20]oxa[13]thia[1,14]diazatetracyclo[14.7.2.0˜3,6˜.0˜19,24˜]pentacosa[8,16,18,24]tetraen]-15′-one 13′,13′-dioxide], for which the IC50 in test [2] (setting [5]) came to 379 nM.
As for `CO[C@@]1(CC(=O)N(C)C2CC2)/C=C/C[C@H](C)[C@@H](C)S(=O)(=O)NC(=O)c2ccc3c(c2)N(C[C@@H]2CC[C@H]21)C[C@@]1(CCCc2cc(Cl)ccc21)CO3` [Example 100374, 2-((1S,3′R,6′R,7′S,8′E,11′S,12′R)-6-chloro-7′-methoxy-11′,12′-dimethyl-13′,13′-dioxido-15′-oxo-3,4-dihydro-2H-spiro[naphthalene-1,22′-[20]oxa[13]thia[1,14]diazatetracyclo [14.7.2.0~3,6~.0~19,24~]pentacosa[8,16,18,24]tetraen]-7′-yl)-N-cyclopropyl-N-methylacetamide], the IC50 in test [2] (setting [6]) came out at 433 nM.
Consider `CO[C@]1(c2cccnc2F)/C=C/C[C@H](C)[C@@H](C)S(=O)(=O)NC(=O)c2ccc3c(c2)N(C[C@@H]2CC[C@H]21)C[C@@]1(CCCc2cc(Cl)ccc21)CO3` [Example 100325, (1S,3′R,6′R,7′R,8′E,11′S,12′R)-6-chloro-7′-(2-fluoro-3-pyridinyl)-7′-methoxy-11′,12′-dimethyl-3,4-dihydro-2H,15′H-spiro[naphthalene-1,22′-[20]oxa[13]thia[1,14]diazatetracyclo [14.7.2.0~3,6~.0~19,24~]pentacosa[8,16,18,24]tetraen]-15′-one 13′,13′-dioxide], for which the IC50 in test [2] (setting [7]) was found to be 482 nM.
Still for that read-out and setting: for `C[C@@H]1[C@@H](C)CCC[C@@](O)(CC(=O)N2CCC2)[C@@H]2CC[C@H]2CN2C[C@@]3(CCCc4cc(Cl)ccc43)COc3ccc(cc32)C(=O)NS1(=O)=O` [Example 100144, (1S,3′R,6′R,7′R,11′S,12′R)-7′-(2-(1-azetidinyl)-2-oxoethyl)-6-chloro-7′-hydroxy-11′,12′-dimethyl-3,4-dihydro-2H,15′H-spiro[naphthalene-1,22′-[20]oxa[13]thia[1,14]diazatetracyclo [14.7.2.0~3,6~.0~19,24~]pentacosa[16,18,24]trien]-15′-one 13′,13′-dioxide] the value was 208 nM.
As to `CO[C@]1(CNCCN2CCOCC2)/C=C/C[C@H](C)[C@@H](C)S(=O)(=O)NC(=O)c2ccc3c(c2)N(C[C@@H]2CC[C@H]21)C[C@@]1(CCCc2cc(Cl)ccc21)CO3` [Example 36, (1S,3′R,6′R,7′R,8′E,11′S,12′R)-6-chloro-7′-methoxy-11′,12′-dimethyl-7′-(((2-(4-morpholinyl)ethyl)amino)methyl)-3,4-dihydro-2H,15′H-spiro[naphthalene-1,22′-[20]oxa[13]thia[1,14]diazatetracyclo [14.7.2.0~3,6~.0~19,24~]pentacosa[8,16,18,24]tetraen]-15′-one 13′,13′-dioxide], the IC50 in test [2] (setting [5]) is 518 nM.
